Reference: ChEMBL document CHEMBL1201862, “PubChem BioAssay data set” (2004)
Activity calls are given as the source filed them.

Columns and labels:
Cytochrome P450 1A2 = molecular target: T1, Cytochrome P450 1A2 (Homo sapiens, UniProt P05177);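 also: PubChem cytochrome P450 panel assay, CYP1A2 panel member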
T1 sequence (P05177 whole entry): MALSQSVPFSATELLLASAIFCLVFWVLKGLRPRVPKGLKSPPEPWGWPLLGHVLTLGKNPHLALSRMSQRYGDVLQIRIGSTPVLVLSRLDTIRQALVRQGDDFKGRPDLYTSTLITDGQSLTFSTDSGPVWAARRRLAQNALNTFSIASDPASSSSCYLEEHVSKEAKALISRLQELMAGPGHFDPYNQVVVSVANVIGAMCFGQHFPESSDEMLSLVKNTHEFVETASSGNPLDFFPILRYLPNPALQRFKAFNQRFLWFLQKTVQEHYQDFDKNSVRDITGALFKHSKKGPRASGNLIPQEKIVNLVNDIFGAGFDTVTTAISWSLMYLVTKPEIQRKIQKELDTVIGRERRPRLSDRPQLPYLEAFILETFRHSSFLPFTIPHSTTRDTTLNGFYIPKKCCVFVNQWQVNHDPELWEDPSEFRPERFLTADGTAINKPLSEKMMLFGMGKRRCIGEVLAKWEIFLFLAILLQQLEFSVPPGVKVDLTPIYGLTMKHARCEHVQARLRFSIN

Cytochrome P450 2D6 = Cytochrome P450 2D6 (Homo sapiens, UniProt P10635);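 also: CYP2D6 member of a cytochrome P450 panel assay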
Cytochrome P450 2D6, sequence (P10635 whole entry): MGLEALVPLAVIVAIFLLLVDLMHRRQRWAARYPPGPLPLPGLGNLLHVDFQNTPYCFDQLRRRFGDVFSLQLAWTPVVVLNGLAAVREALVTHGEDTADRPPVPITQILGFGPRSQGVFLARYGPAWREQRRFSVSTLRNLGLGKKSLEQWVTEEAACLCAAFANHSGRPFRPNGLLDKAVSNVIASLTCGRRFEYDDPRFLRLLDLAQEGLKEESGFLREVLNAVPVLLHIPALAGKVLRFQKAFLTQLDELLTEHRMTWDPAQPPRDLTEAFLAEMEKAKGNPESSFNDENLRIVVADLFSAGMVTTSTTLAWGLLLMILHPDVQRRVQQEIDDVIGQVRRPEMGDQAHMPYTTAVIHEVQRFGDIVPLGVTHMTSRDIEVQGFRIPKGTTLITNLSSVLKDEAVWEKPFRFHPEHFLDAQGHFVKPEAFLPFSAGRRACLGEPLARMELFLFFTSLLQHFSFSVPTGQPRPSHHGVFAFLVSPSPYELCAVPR

Cytochrome P450 2C9 = Cytochrome P450 2C9 (Homo sapiens, UniProt P11712)
Cytochrome P450 2C9, sequence (P11712 whole entry): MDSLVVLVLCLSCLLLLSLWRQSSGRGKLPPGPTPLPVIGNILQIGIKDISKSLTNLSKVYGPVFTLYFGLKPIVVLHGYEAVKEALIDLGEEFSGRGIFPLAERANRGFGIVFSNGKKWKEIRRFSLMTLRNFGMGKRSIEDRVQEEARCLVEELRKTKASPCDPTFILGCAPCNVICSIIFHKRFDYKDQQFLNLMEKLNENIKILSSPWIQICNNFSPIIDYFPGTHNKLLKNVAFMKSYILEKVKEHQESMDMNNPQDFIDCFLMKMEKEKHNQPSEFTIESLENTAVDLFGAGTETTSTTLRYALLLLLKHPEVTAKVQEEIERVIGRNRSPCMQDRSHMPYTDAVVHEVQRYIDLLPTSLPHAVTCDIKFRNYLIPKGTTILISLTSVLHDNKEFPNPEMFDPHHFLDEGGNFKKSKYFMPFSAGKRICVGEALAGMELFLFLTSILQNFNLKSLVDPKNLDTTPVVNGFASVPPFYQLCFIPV

Cytochrome P450 3A4 = Cytochrome P450 3A4 (Homo sapiens, UniProt P08684);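 also: CYP3A4 tested as one member of a cytochrome P450 panel screen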
Cytochrome P450 3A4, sequence (P08684 whole entry): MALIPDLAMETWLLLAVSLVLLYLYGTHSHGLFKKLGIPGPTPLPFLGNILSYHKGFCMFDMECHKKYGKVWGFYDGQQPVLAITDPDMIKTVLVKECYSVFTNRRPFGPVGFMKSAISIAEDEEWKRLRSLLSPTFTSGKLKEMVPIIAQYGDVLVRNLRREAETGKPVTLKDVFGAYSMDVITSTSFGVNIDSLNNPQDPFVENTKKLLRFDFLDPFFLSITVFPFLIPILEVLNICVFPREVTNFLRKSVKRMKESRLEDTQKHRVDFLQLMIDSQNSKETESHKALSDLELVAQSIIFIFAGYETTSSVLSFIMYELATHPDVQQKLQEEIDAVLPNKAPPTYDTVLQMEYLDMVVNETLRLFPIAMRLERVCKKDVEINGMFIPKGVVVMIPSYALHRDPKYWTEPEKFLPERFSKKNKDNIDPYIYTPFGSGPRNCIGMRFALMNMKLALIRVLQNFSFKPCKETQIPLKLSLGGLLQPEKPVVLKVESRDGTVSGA

[1] = NIH-3T3 fibroblast cytotoxicity, dose response, cytotoxicity control, cell-based, fluorescence, Alamar Blue, secondary assay (AID 2327); type: functional;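 also: NIH-3T3 mouse fibroblasts cultured with fluconazole at 8 µg/mL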
[2] = C. albicans growth with fluconazole, confirmation, fluorescence, retest (AID 2467); type: functional, cell-based
[3] = tested on: Streptococcus sp. 'group A'; test: growth inhibition of control SK(-) GAS strain, dose response, counter-screen for streptokinase expression inhibitor project, luminescence, kanamycin, BacTiterGlo, confirmation (AID 1900); type: functional, organism-based
Streptokinase A = molecular target: T2, Streptokinase A (Streptococcus pyogenes serotype M1, UniProt P10520); test: S. pyogenes streptokinase expression inhibitors, potency, dose response, plasminogen activation absorbance, OD405 (AID 1914); type: functional, Streptococcus pyogenes M1 GAS;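 also: secreted streptokinase activity via plasminogen activation per viability signal from cell pellet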
T2 sequence (P10520 whole entry): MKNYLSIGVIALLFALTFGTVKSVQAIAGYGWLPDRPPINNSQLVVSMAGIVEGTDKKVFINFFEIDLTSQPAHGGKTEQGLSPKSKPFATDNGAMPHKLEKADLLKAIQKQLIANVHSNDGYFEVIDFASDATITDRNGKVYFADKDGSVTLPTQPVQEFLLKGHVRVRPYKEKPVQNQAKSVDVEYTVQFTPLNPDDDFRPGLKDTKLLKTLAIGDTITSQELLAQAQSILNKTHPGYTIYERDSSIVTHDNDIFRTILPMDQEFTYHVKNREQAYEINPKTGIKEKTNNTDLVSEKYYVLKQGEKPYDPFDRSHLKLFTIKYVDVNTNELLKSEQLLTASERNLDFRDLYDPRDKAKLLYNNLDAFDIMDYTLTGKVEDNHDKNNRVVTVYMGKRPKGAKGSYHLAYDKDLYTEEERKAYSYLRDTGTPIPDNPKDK

Streptococcus = test: Group A Streptococcus viability loss, dose response, counter-screen for streptokinase expression inhibitor project, luminescence, BacTiterGlo (AID 1915); type: functional, organism-based;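 also: potency for reduction of bacterial viability or growth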
Cytochrome P450 2C19 = Cytochrome P450 2C19 (Homo sapiens, UniProt P33261); test: Cytochrome panel assay with activity outcomes. Panel member name: p450-cyp2c19 Compounds with AC50 equal or less than 10 uM are considered active; type: functional
Cytochrome P450 2C19, sequence (P33261 whole entry): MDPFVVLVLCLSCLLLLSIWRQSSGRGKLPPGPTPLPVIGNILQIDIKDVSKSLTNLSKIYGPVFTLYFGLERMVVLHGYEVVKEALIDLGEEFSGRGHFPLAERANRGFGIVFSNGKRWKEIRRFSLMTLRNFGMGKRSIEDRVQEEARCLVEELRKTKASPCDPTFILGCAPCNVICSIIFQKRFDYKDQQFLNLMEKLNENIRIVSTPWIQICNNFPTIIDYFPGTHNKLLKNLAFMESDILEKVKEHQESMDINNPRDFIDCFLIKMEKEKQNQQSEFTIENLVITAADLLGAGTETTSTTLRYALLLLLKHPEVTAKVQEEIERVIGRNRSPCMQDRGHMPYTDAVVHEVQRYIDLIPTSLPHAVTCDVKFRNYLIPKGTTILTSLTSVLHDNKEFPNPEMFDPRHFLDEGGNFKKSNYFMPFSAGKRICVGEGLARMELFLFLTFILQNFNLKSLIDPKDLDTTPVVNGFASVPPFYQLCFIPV

INS1 = test: beta cell apoptosis inhibitors, cytokine rescue, dose response, luminescence, retest (AID 449756); type: functional, cell-based; settings: Rattus norvegicus;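 also: cell death triggered by IL-1 beta plus TNF-alpha plus IFN-gamma mixture; protective hits raise ATP signal compared with cytokine alone wells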

CN1CCN(c2ncc3nc(-c4ccccc4)c(=O)n(CCC#N)c3n2)CC1
AC50 (Cytochrome P450 1A2): 20 µM (inconclusive)
AC50 (Cytochrome P450 2D6): 25.1 µM (inconclusive)

CS(=O)(=O)N1CCC2(CCN(Cc3ccncc3)CC2)CC1
AC50 (Cytochrome P450 2C9): 31.6 µM (inconclusive)
AC50 (Cytochrome P450 3A4): 12.6 µM (inconclusive)
AC50 (Cytochrome P450 2D6): 25.1 µM (inconclusive)

Cc1cnc(CNc2ncncc2-c2ccccc2Cl)cn1
AC50 (Cytochrome P450 3A4): 0.251 µM (inconclusive)
AC50 (Cytochrome P450 2D6): 25.1 µM (inconclusive)

Cc1ccc(C(=O)Cn2cccn2)cc1
EC50 [1]: > 160 µM (inconclusive)
EC50 [2]: > 38 µM (not active)

Cc1ccc(-n2c(-c3ccccc3)cc(=O)nc2C)cc1
AC50 (Cytochrome P450 2C9): 7.08 µM (inconclusive)

COc1cnc(-c2ccccn2)nc1Oc1c(C)cccc1C
EC50 [3]: 6.39 µM (active)
EC50 (Streptokinase A): > 150 µM (not active)
EC50 (Streptococcus): > 150 µM (not active)

COc1ccc(NC(=O)COC(=O)Cn2c(C)nc3ccccc32)cc1OC
AC50 (Cytochrome P450 2C19; read-out: AC50): 3.55 µM (inconclusive)

COc1ccc(NC(=O)N2CCCC3(CCN(C(=O)c4ccc(OC)cc4)CC3)C2)cc1
AC50 (Cytochrome P450 2C9): 39.8 µM (inconclusive)

COC(=O)[C@@]1(Cc2ccc(OC)cc2)[C@H]2c3cc(C(=O)N4CCCC4)n(Cc4nc5ccccc5[nH]4)c3C[C@H]2CN1C(=O)c1ccccc1
AC50 (Cytochrome P450 2C19; read-out: AC50): 20 µM (inconclusive)

COc1ccc(NS(=O)(=O)c2cccc(NC(=O)CCC(=O)c3ccc(Cl)cc3)c2)cc1
EC50 [3]: 11.2 µM (active)
EC50 (Streptokinase A): > 150 µM (not active)
EC50 (Streptococcus): 25.3 µM (active)

CN1c2ccccc2C(O)=C(C(=O)Nc2ccccc2)S1(=O)=O
AC50 (Cytochrome P450 3A4): 39.8 µM (inconclusive)
AC50 (Cytochrome P450 2C19): inconclusive

Cn1c(CCN2CCCCC2)nc2cc([N+](=O)[O-])ccc21
AC50 (Cytochrome P450 2C19): inconclusive
AC50 (Cytochrome P450 2D6): 14.1 µM (inconclusive)

CCc1ccc(OCC(=O)NC(=S)Nc2ccc(F)cc2)c(Br)c1
AC50 (Cytochrome P450 1A2): 3.16 µM (inconclusive)
AC50 (Cytochrome P450 2C9): 3.16 µM (inconclusive)

CCCNC(=O)Cn1cnc2sc(C(=O)Nc3ccc4c(c3)OCO4)c(C)c2c1=O
AC50 (Cytochrome P450 3A4): 1.41 µM (inconclusive)
AC50 (Cytochrome P450 2C19; read-out: AC50): 0.00562 µM (inconclusive)
AC50 (Cytochrome P450 2D6): 5.01 µM (inconclusive)

N=c1c2ccccc2nc2n1CCCCCCCCCCC2
AC50 (INS1): 9.52 µM (active)

COCc1nnc(NC(=O)CCN2C(=O)c3ccccc3C2=O)s1
AC50 (Cytochrome P450 2C9): 31.6 µM (inconclusive)
AC50 (Cytochrome P450 2D6): 17.8 µM (inconclusive)

CCOC(=O)CSc1n[nH]c(-c2cccnc2)n1
AC50 (Cytochrome P450 3A4): 15.8 µM (inconclusive)
AC50 (Cytochrome P450 2C19; read-out: AC50): 11.2 µM (inconclusive)

Oc1c(Br)cc(Br)cc1Oc1ccc(Br)cc1Br
EC50 [1]: > 150 µM (inactive)
EC50 [3]: 1.33 µM (active)
EC50 (Streptokinase A): 0.753 µM (active)
EC50 (Streptococcus): 2.73 µM (active)
EC50 [2]: > 38 µM (not active)

O=c1ccc2[nH]cc(C3=CCNCC3)c2[nH]1
AC50 (Cytochrome P450 2C9): 7.94 µM (inconclusive)

C/C(=N\NC(=O)c1cccc(Br)c1)c1ccc(Br)cc1
AC50 (Cytochrome P450 3A4): 28.2 µM (inconclusive)
AC50 (Cytochrome P450 2C19; read-out: AC50): 0.224 µM (inconclusive)

C/C(=N\O)c1cc(Cl)cc(Cl)c1O
EC50 [1]: > 160 µM (inactive)
EC50 [2]: 4.41 µM (active)

O=C(CNC(=O)c1ccc2c(c1)OCO2)N/N=C/c1cc(Br)ccc1O
AC50 (INS1): 3.36 µM (active)
EC50 [3]: 10.1 µM (active)
EC50 (Streptokinase A): > 150 µM (not active)
EC50 (Streptococcus): 25.2 µM (inconclusive)

Cc1ccc(-c2nnc(Nc3ccccc3)c3ccccc23)cc1S(=O)(=O)NCC1CCCO1 (configuration not stated)
EC50 [1]: 25 µM (active)
EC50 [2]: 5.07 µM (active)

O=P([O-])([O-])C(Cl)(Cl)P(=O)(O)O.[Na+].[Na+] [CLODRONATE DISODIUM]
AC50 (Cytochrome P450 2C19): inconclusive

CN1CCC(=C2c3ccccc3Sc3ccccc32)CC1 [PIMETHIXENE]
AC50 (Cytochrome P450 2C19; read-out: AC50): 15.8 µM (inconclusive)

N#CC(C#N)=Cc1cc(O)c(O)c(O)c1 [TYRPHOSTIN 25]
AC50 (Cytochrome P450 2C9): 15.8 µM (inconclusive)
